Tests used:
[1] = system: HDAC; parameters: method as in earlier work; settings: cited from earlier work
[2] = target: PI3Kα (Homo sapiens, UniProt P42336); parameters: method as in earlier work; settings: cited from earlier work
[3] = system: LY2 breast cancer cells; assay: MTS cell viability assay, LY2; format: cell-based; settings: 72 h treatment
Description: (§1) The cell viability effects of compounds 5a–5f were assessed in LY2, JIMT1, and MDA‐MB‐231 breast cancer cell lines using the 3‐(4,5‐dimethylthiazol‐2‐yl)‐5‐(3‐carboxymethoxyphenyl)‐2‐(4‐sulfophenyl)‐2H‐tetrazolium (MTS) assay. The MTS assay measures metabolic viability and serves as a first‐pass screen.
(§2) JIMT‐1 (DSMZ ACC 589) and MDA‐MB‐231 (ATCC HTB‐26) breast cancer cell lines were maintained in Dulbecco's Modified Eagle Medium (DMEM) High Glucose with L‐glutamine (D5796, Sigma) supplemented with 10% fetal calf serum. MCF7‐derivative LY2 breast cancer cells were previously described (REF: PMID: 33420368). LY2 cells were cultured in phenol red‐free MEM (PRF‐MEM; 51 200‐046, Gibco) supplemented with 10% charcoal dextran‐stripped fetal calf serum (CDS‐FCS; F6765, Merck), 2 mmol/L L‐glutamine (G7513, Merck), and 10^−8 mol/L 4‐hydroxytamoxifen (4‐OHT; H7904, Merck). All cell lines were maintained at 37°C in a humidified incubator with 5% CO2 and regularly authenticated and tested for mycoplasma.
(§3) Cell viability was evaluated in response to increasing concentrations of 5a‐5f (0.3, 1, 3, 10, and 30 μM) or vehicle control (0.1% DMSO). LY2, JIMT1, and MDA‐MB‐231 cells were seeded at a density of 2,500 cells per well in 96‐well plates with a total volume of 100 μL per well. Prior to treatment, cells were serum‐deprived for 24 h. Following serum depletion, cells were treated in complete growth medium for 72 h. Cell viability was assessed using the MTS assay (G1111, Promega) according to the manufacturer's instructions. Absorbance was measured at 495 nm using a BioTek Synergy HTX Multi‐Mode Microplate Reader (Agilent). Results were normalized to the vehicle control (DMSO), and the half‐maximal inhibitory concentration (IC50) of the inhibitors was determined by nonlinear regression (curve fit) using a four‐parameter variable slope model.

[4] = system: JIMT1 breast cancer cells; assay: MTS cell viability assay, JIMT1; format: cell-based; settings: Homo sapiens, JIMT-1, 72 h treatment
Description: as §1, §2, §3

[5] = system: MDA‐MB‐231 triple‐negative breast cancer cell line; assay: MTS cell viability assay, MDA-MB-231; format: cell-based; settings: Homo sapiens, MDA-MB-231, 72 h, MDA‐MB‐231 cells, 72 h treatment
Description: as §1, §2, §3

[6] = system: HDAC5; parameters: method as in PMID 22693356; settings: cited from earlier work
[7] = system: HDAC2; parameters: method as in PMID 22693356; settings: cited from earlier work
[8] = system: MCF‐10A cells; assay: Cell viability in nontransformed cell line MCF-10A; format: cell-based; settings: Homo sapiens
From the text: Thus, further optimization will be required to improve the therapeutic index.
FIGURE 5 Dose‐dependent effects of compound treatment (5b and 5f) on nontransformed breast cell viability across MCF‐10A.

[9] = system: HDAC9; parameters: method as in PMID 22693356; settings: cited from earlier work
[10] = target: HDAC4 (Homo sapiens, UniProt P56524); parameters: method as in PMID 32022441; settings: cited from earlier work
Chain of HDAC4 (P56524 whole entry): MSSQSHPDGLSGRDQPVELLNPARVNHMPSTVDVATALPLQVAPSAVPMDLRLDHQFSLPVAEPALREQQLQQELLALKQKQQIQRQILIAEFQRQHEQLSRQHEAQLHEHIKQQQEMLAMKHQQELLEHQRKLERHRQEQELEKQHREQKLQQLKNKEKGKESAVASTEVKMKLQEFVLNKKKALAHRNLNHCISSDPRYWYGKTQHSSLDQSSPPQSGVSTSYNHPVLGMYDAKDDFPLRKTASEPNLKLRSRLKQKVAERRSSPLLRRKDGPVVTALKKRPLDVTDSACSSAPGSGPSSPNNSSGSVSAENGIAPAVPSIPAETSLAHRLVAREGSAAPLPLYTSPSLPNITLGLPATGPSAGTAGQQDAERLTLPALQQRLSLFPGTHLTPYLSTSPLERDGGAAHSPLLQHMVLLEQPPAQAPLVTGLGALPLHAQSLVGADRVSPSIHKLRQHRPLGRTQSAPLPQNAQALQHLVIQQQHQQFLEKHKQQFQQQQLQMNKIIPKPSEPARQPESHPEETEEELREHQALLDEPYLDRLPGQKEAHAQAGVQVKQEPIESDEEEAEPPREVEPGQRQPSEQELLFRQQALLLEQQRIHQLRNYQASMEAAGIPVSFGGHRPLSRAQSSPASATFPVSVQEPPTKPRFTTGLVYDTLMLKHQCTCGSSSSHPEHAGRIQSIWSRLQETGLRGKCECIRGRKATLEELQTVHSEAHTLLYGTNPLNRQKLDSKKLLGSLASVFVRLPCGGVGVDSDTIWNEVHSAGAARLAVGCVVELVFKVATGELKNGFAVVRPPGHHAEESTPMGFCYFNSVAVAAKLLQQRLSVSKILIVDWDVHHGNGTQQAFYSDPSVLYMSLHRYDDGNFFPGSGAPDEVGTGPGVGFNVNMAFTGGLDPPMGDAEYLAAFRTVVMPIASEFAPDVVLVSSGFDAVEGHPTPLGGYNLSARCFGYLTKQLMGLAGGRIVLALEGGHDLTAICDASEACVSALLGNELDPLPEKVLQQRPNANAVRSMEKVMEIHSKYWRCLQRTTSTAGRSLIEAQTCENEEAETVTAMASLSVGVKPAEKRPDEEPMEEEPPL

[11] = parameters: method as in PMID 32022441; settings: previous studies of the authors ref 25; cited from earlier work
[12] = target: HDAC1 (Homo sapiens, UniProt Q13547); parameters: method as in PMID 32022441; settings: cited from earlier work
Chain of HDAC1 (Q13547 whole entry): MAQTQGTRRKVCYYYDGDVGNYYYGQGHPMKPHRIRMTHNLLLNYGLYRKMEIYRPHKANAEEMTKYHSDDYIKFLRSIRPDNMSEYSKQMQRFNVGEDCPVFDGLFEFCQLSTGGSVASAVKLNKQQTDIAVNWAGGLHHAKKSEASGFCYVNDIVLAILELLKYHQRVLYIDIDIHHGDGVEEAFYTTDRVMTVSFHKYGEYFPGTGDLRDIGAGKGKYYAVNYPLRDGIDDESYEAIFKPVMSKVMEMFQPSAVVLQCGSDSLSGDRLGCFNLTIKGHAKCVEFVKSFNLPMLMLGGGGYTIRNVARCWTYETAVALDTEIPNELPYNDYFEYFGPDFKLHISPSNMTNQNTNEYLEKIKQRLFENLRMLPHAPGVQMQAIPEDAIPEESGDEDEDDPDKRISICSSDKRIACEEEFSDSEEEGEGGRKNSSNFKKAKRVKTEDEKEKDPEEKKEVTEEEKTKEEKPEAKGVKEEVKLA

Chain of PI3Kα (P42336 whole entry): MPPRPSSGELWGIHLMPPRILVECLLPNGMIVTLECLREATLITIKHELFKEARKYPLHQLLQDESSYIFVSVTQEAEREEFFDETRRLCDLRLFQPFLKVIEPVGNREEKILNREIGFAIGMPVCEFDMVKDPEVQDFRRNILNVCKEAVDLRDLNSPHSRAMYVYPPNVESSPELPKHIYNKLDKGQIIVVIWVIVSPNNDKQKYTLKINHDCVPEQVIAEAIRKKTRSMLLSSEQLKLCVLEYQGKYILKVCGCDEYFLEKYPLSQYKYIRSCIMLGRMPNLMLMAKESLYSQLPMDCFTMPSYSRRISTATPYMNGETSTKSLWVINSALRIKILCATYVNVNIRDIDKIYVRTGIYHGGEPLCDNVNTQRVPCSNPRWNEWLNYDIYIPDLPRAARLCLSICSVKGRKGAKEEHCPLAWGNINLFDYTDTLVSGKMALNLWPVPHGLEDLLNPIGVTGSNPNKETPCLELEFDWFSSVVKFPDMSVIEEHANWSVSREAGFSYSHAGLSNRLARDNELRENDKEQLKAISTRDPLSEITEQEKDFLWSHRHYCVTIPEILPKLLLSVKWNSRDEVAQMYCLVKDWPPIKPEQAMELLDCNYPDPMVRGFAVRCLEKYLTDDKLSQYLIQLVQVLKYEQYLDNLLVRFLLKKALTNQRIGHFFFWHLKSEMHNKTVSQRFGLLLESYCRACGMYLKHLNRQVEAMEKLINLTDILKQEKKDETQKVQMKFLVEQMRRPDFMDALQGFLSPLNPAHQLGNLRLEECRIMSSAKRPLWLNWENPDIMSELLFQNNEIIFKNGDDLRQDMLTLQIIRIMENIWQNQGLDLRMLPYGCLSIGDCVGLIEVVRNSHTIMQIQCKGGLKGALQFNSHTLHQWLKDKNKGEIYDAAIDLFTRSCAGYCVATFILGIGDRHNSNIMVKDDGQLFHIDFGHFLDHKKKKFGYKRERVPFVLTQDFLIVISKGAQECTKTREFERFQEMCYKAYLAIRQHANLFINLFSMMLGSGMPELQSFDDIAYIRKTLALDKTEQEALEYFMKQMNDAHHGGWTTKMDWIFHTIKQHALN
Chain of PI3Kα (P27986 whole entry partner): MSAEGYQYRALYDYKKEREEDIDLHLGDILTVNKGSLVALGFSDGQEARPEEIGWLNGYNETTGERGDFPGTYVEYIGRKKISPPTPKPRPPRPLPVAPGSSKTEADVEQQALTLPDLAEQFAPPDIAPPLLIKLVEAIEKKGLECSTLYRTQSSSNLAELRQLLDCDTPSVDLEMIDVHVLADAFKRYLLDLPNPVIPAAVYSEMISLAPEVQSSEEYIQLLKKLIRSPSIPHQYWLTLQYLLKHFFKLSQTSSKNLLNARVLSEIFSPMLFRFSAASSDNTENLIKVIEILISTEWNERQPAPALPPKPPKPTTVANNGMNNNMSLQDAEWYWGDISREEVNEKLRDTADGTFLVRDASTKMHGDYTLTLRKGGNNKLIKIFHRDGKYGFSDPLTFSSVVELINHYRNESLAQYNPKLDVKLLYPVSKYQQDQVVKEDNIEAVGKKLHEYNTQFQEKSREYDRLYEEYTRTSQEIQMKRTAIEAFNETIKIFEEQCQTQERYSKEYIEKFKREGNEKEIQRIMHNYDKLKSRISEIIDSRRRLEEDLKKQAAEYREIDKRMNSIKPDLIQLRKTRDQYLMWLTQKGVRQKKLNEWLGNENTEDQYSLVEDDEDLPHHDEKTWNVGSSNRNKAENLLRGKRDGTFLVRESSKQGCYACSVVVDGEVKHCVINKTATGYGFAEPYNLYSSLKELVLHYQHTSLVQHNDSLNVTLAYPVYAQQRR

| IC50 [3] [µM] | IC50 [4] [µM] | IC50 [5] [µM] | SMILES | also measured |
| --- | --- | --- | --- | --- |
| – | – | – | CNc1ccc(-c2nc(N3CCOCC3)c3sc(CN(C)c4ncc(C(=O)NO)cn4)cc3n2)cn1 [Ifupinostat, ifupinostat] | IC50 [1]: 0.1 to 1 µM; IC50 [2]: < 0.1 µM |
| 10.3 ± 3 | 8.97 ± 2.64 | 13.1 ± 6.08 | Nc1ccc(-c2nc(NCc3ccc(C(=O)NO)cc3)nc(N3CCOCC3)n2)cn1 [Compound 5d, 4‐(((4‐(6‐Aminopyridin‐3‐yl)‐6‐Morpholino‐1,3,5‐Triazin‐2‐yl)Amino)Methyl)‐N‐Hydroxybenzamide] | – |
| 10.9 | 8.58 ± 0.14 | 5.8 ± 0.6 | O=C(NO)c1ccc(CNc2nc(-c3ccccc3)nc(N3CCOCC3)n2)cc1 [Compound 5a, N‐Hydroxy‐4‐(((4‐Morpholino‐6‐Phenyl‐1,3,5‐Triazin‐2‐yl)Amino)Methyl)Benzamide] | – |
| 10 | 10.5 | 9.43 | O=C(NO)c1ccc(CNc2nc(-c3cccnc3)nc(N3CCOCC3)n2)cc1 [Compound 5c, N‐Hydroxy‐4‐(((4‐Morpholino‐6‐(pyridin‐3‐yl)−1,3,5‐Triazin‐2‐yl)Amino)Methyl)Benzamide] | – |
| 8.84 ± 3.47 | 15.6 ± 6.48 | 10.4 | Nc1ncc(-c2nc(NCc3ccc(C(=O)NO)cc3)nc(N3CCOCC3)n2)cn1 [Compound 5e, 4‐(((4‐(2‐Aminopyrimidin‐5‐yl)‐6‐Morpholino‐1,3,5‐Triazin‐2‐yl)Amino)Methyl)‐N‐Hydroxybenzamide] | – |
| < 0.3 | < 0.3 | < 0.3 | COc1ccc(-c2nc(N3CCOCC3)c3sc(CN(C)c4ncc(C(=O)NO)cn4)cc3n2)cn1 [Fimepinostat, fimepinostat, reference compound] | IC50 [6]: […]; IC50 [7]: […]; IC50 [8]: < 0.3 µM; IC50 [9]: […] |
| – | – | – | O=C(NO)c1ccc(/C=N/NC(=O)c2cc(N3CCOCC3)nc(-c3cccc(O)c3)n2)cc1 [LASSBio-2208] | IC50 [10]: > 3 µM; stability of the NAH motif [11]: acid‐labile; IC50 [12]: > 3 µM |
